The experiment has as its system porcine liver esterase (PLE). In words: HPLC of naproxen release, initial rates, Lineweaver-Burk. The format is biochemical, Sus scrofa. The following applies: PBS, 5% acetonitrile, 25 °C, 120 IU/mL PLE, 29-91 μM substrate; ester hydrolysis.

For orientation: Km means the substrate concentration at which the rate is half of its maximum.

Consider `COc1ccc2cc(C(C)C(=O)Oc3cccc4c3C(=O)c3c(O)cccc3C4)ccc2c1` (stereo not shown) [compound 8, 8-Hydroxy-9-oxo-9,10-dihydroanthracen-1-yl 2-(6-methoxynaphthalen-2-yl)propanoate], for which the Km turned out to be 65.1 ± 0.99 µM.

Values taken from publication PMC3834954, “Design, Synthesis and in Vitro Degradation of a Novel Co-Drug for the Treatment of Psoriasis” (Pharmaceutics, 2013).
